Measurements reported in publication PMC12881674, “Activation of TRPV3 channels in bladder cancer cells stimulates ATP release” (Molecular Pharmacology, 2025).

Key:
HEK293 cells = tested on: HEK293 cells; set-up: method as in PMID 35916168; conditions: >10 μM; cited from earlier work
KU-19-19 cells = experiment: ATPlite luminescence assay of extracellular ATP; format: cell-based, human; conditions: pretreatment with 10 μM ruthenium red, 50 μM AV3-1
Description: KU-19-19 cells (1 × 10^5 per well) were plated in 24-well plates and cultured for 24 hours. Medium was removed, and wells were washed with PBS before adding 1 mL of drugs dissolved in PBS. After 30 minutes, 100 μL of the supernatant was transferred to a 96-well plate. ATP content was measured using the ATPlite luminescence ATP assay (Revvity, catalog number 6016943) following manufacturer’s instructions. Luminescence was recorded using a Polarstar Omega reader and normalized to control wells without addition of drugs.
Fig. 4 TRPV3 activation by AV3-1 was enhanced by cholesterol supplementation and causes ATP release in KU-19-19 bladder cancer cells. […] Current amplitudes were recorded using voltage ramps from −100 mV to +100 mV (500-millisecond duration) and expressed as current density (pA/pF) measured at +100 mV and −100 mV. (C) Quantification of current densities (pA/pF) at −100 mV (inward current) and +100 mV (outward current) at the time points (1, 2) as indicated in (A, B). […] Statistical significance was determined using Kruskal-Wallis ANOVA followed by Conover test; ∗P < .05. […] Inset: Box-and-whisker plots of AV3-1 potencies under control conditions (open box) and following cholesterol supplementation (gray box), derived from individual concentration-response fits and expressed as pEC50 (-log10(EC50 [M])). […]

SMILES	effects on HEK293 cells at higher concentrations (HEK293 cells)	effect on AV3-1-evoked ATP release (KU-19-19 cells)
Cc1ccc(O)c(C2CCC(C(C)C)=C2Cl)c1 (centres unmarked) [KS0365]	nonspecific effects	–
N.N.N.N.N.N.N.N.N.N.N.N.N.N.[Cl-].[Cl-].[Cl-].[Cl-].[Cl-].[Cl-].[O-2].[O-2].[Ru+3].[Ru+3].[Ru+4] [ruthenium red, reference compound]	–	reduced ATP levels
